Experimental data from patent publication US20030199578A1, “Naphthalene amides as potassium channel openers” (priority 2002, published 2003).

Columns and labels:
[1] = tested on: Landrace pig bladder strips; test: In vitro functional model: field-stimulated bladder tissue strips; conditions: dose dependent, concentration range 10^−9 to 10^−5 M, control agonist
Description: Compounds were evaluated for functional potassium channel opening activity using tissue strips obtained from Landrace pig bladders. Landrace pig bladders were obtained from female Landrace pigs of 9-30 kg. Landrace pigs were euthanized with an intraperitoneal injection of pentobarbital solution, Somlethal®, J. A. Webster Inc., Sterling Mass. The entire bladder was removed and immediately placed into Krebs Ringer bicarbonate solution (composition, mM: NaCl, 120; NaHCO3, 20; dextrose, 11; KCl, 4.7; CaCl2, 2.5; MgSO4, 1.5; KH2PO4, 1.2; K2EDTA, 0.01, equilibrated with 5% CO2/95% O2 pH 7.4 at 37° C.). Propranolol (0.004 mM) was included in all of the assays to block β-adrenoceptors. The trigonal and dome portions were discarded. Strips 3-5 mm wide and 20 mm long were prepared from the remaining tissue cut in a circular fashion. The mucosal layer was removed. One end was fixed to a stationary glass rod and the other to a Grass FT03 transducer at a basal preload of 1.0 gram. Two parallel platinum electrodes were included in the stationary glass rod to provide field stimulation of 0.05 Hz, 0.5 milli-seconds at 20 volts. […] The maximal efficacy of each compound (expressed as % relative to P1075) is reported. […] Agonist potencies were also expressed as an index relative to P1075. The index was calculated by dividing the ED50 for P1075 by the ED50 for the test agonist in a given tissue. […]

melting point [°C] | SMILES | effect on stimulated twitch of bladder strips [1]
162 to 164 | O=C(Nc1c(C(O)(C(F)(F)F)C(F)(F)F)ccc2ccccc12)c1ccno1 [Example 41, Isoxazole-5-carboxylic acid [2-(2,2,2-trifluoro-1-hydroxy-1-trifluoromethyl-ethyl)-naphthalen-1-yl]-amide] | –
161 to 162 | CC(=O)Nc1c(C(O)(C(F)(F)F)C(F)(F)F)cc(Cl)c2ccccc12 [Example 9, N-[4-Chloro-2-(2,2,2-trifluoro-1-hydroxy-1-trifluoromethyl-ethyl)-naphthalen-1-yl]-acetamide] | –
– | CCC(C)(C)N=C(NC#N)Nc1cccnc1 [Example P1075] | completely eliminated the stimulated twitch
